{"source": "patent US11845990B2", "about": "“Prediction of sleep parameter and response to sleep-inducing compound based on PER3 VNTR genotype” (Vanda Pharmaceuticals Inc., priority 2007, dated 2023)", "key": {"[1]": {"test_system": "healthy male and female subjects with induced transient insomnia", "assay": "Induced transient insomnia clinical study (first night effect plus 5-hour phase advance), polysomnography, by PER3 VNTR genotype", "format": "in vivo, human", "parameters": "greater sleep efficiency over subjects on placebo (full night) / lower sleep efficiency than subjects on placebo (full night) / sleep efficiency higher than in placebo, first third of the night / sleep efficiency higher than in placebo, second third of the night / sleep efficiency lower than in placebo, first third of the night / sleep efficiency lower than in placebo, second third of the night: concentration or dose not given beside the values", "source_text": "The effect of this polymorphism was investigated with respect to various sleep parameters (latency to persistent sleep, wake after sleep onset, sleep efficiency), which evaluated objectively by polysomnography in healthy subjects treated with (1R-trans)-N-[[2-(2,3-dihydro-4-benzofuranyl)cyclopropyl]methyl]propanamide, or treated with a placebo, in a clinical protocol that models transient insomnia.\nTransient insomnia can be induced in a laboratory setting as a result of a “first night effect” in which sleep onset and sleep maintenance are disrupted in normal sleeping adults by sleeping in an unfamiliar surrounding. This model of transient insomnia has been validated in several studies of normal sleeping adults. Insomnia can also be precipitated by other factors such as traveling across multiple time zones (jet lag). This condition can be reproduced in a sleep laboratory by forcing an earlier bedtime (phase advance). The study reported here used both, the first night effect and a 5-hour phase advance component, to increase the likelihood that transient insomnia will be induced. A multi-center, randomized, double-blind, placebo-controlled, parallel study was conducted to investigate the efficacy and safety of a single oral dose of (1R-trans)-N-[[2-(2,3-dihydro-4-benzofuranyl)cyclopropyl]methyl]propanamide (20 mg, 50 mg, and 100 mg) and matching placebo in healthy male and female subjects with induced transient insomnia. […] Latency to Persistent Sleep (LPS), Wake After Sleep Onset (WASO) and sleep efficiency (SE) were evaluated objectively by use of polysomnography.\nMore than 70% of subjects who enrolled in the clinical trial consented to the optional PG study. From those, 288 were genotyped for the PER3 VNTR polymorphism."}, "[2]": {"assay": "Solubility and pH of saturated solution", "format": "physicochemical"}, "[3]": {"test_system": "healthy volunteers", "assay": "Previous tolerability studies in healthy volunteers", "format": "in vivo"}}}
{"smiles": "CCC(=O)NC[C@@H]1C[C@H]1c1cccc2c1CCO2", "note": "[(1R-trans)-N-[[2-(2,3-dihydro-4-benzofuranyl)cyclopropyl]methyl]propanamide]", "values": [{"measurement": "shorter LPS period than with placebo", "setting": "[1]; PER3 4/4 and 4/5 genotypes", "value": 30, "unit": "min"}, {"measurement": "shorter LPS period than with placebo (percent)", "setting": "[1]; PER3 4/4 and 4/5 genotypes", "value": 56, "unit": "%"}, {"measurement": "smaller WASO than with placebo", "setting": "[1]; PER3 4/4 and 4/5 genotypes", "value": 21, "unit": "min"}, {"measurement": "smaller WASO than with placebo (percent)", "setting": "[1]; PER3 4/4 and 4/5 genotypes", "value": 16, "unit": "%"}, {"measurement": "sleep efficiency higher than in placebo, first third of the night", "setting": "[1]; PER3 4/4 and 4/5 genotypes, first third of night", "value": 29, "unit": "%"}, {"measurement": "greater sleep efficiency over subjects on placebo (full night)", "setting": "[1]; PER3 4/4 and 4/5 genotypes, full night", "value": 12, "unit": "%"}, {"measurement": "sleep efficiency higher than in placebo, second third of the night", "setting": "[1]; PER3 4/4 and 4/5 genotypes, second third of night", "value": 22.8, "unit": "%"}, {"measurement": "longer WASO than with placebo", "setting": "[1]; PER3 5/5 genotype", "value": 32, "unit": "min"}, {"measurement": "longer WASO than with placebo (percent)", "setting": "[1]; PER3 5/5 genotype", "value": 32.7, "unit": "%"}, {"measurement": "shorter LPS than with placebo", "setting": "[1]; PER3 5/5 genotype", "value": 8, "unit": "min"}, {"measurement": "shorter LPS than with placebo (percent)", "setting": "[1]; PER3 5/5 genotype", "value": 27, "unit": "%"}, {"measurement": "sleep efficiency lower than in placebo, first third of the night", "setting": "[1]; PER3 5/5 genotype, first third of night", "value": 7.2, "unit": "%"}, {"measurement": "lower sleep efficiency than subjects on placebo (full night)", "setting": "[1]; PER3 5/5 genotype, full night", "value": 9.5, "unit": "%"}, {"measurement": "sleep efficiency lower than in placebo, second third of the night", "setting": "[1]; PER3 5/5 genotype, second third of night", "value": 3.4, "unit": "%"}, {"measurement": "efficacy in improving LPS, WASO, and Sleep Efficiency", "setting": "[1]; single oral dose 20, 50 or 100 mg, induced transient insomnia, vs placebo", "value": "efficacious"}, {"measurement": "sleep efficiency improvement in the third part of the night", "setting": "[1]; third third of night, vs placebo", "value": "no improvement"}, {"measurement": "solubility in organic solvents", "setting": "[2]; 95% ethanol, methanol, acetonitrile, ethyl acetate, isopropanol, polyethylene glycols (PEG-300 and PEG-400)", "value": "very soluble or freely soluble"}, {"measurement": "native pH of a saturated solution in water", "setting": "[2]; saturated solution in water", "value": 8.5}, {"measurement": "effect of pH on aqueous solubility", "setting": "[2]; water", "value": "practically unaffected by pH"}, {"measurement": "solubility in water", "setting": "[2]; water", "value": "only slightly soluble"}, {"measurement": "tolerability, multiple doses", "setting": "[3]; multiple doses (up to 28 days) up to 150 mg", "value": "well-tolerated"}, {"measurement": "tolerability, single doses", "setting": "[3]; single doses up to 300 mg", "value": "well-tolerated"}]}
